Among the data in PubChem BioAssay (NCI) are GI50 and TGI values, retold here.

Molecules are shown by their SMILES.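 The compound was tested at five concentrations on cells cultured in 96-well plates, with a 48-hour exposure period. At the GI50, growth is halved. TGI is the concentration that stops growth completely.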 A value given as a limit tells only on which side of the number the result lay.

Some test systems named below: HOP-92 NSCLC; HCT-15 colon; OVCAR-4 ovarian; SK-MEL-28 melanoma; PC-3 prostate; SW-620 colon; RXF 393 renal; TK-10 renal; M14 melanoma; UACC-62 melanoma.
Assay in all cases: NCI-60 cell line screen, 48 h

Consider `CCOC(=O)c1cc(-c2ccc(OC)c(OC)c2)[nH]c1N/N=C/c1c(Cl)cccc1Cl`, for which the GI50 in the assay on HOP-92 NSCLC is 4.58 µM; in the assay on HCT-15 colon, 2.38 µM; in the assay with OVCAR-4 ovarian, 4.46 µM; in the assay with SK-MEL-28 melanoma, 1.12 µM; in the assay with PC-3 prostate, 2.14 µM; in the assay on SW-620 colon it was 2.5 µM. Moreover, the GI50 is 1.91 µM with RXF 393 renal, 2.5 µM with TK-10 renal, 2.32 µM in the assay with M14 melanoma and 0.704 µM in the assay on UACC-62 melanoma. Besides, the TGI was 26.8 µM in the assay on HOP-92 NSCLC; 10.7 µM with HCT-15 colon; more than 62.7 µM with OVCAR-4 ovarian; more than 100 µM in the assay on SK-MEL-28 melanoma; 19 µM in the assay with PC-3 prostate; more than 44.5 µM in the assay on SW-620 colon. In addition, the TGI in the assay with RXF 393 renal was 9.77 µM; in the assay on TK-10 renal, 11.4 µM; with M14 melanoma, 14.9 µM; in the assay on UACC-62 melanoma, 6.64 µM.
As for `O=C(Nc1cccc(Cl)c1)c1cc(N=Nc2ccc([N+](=O)[O-])cc2Cl)ccc1O`, the GI50 was 1.24 µM in the assay on HOP-92 NSCLC; 1.89 µM in the assay with HCT-15 colon; 2.67 µM with OVCAR-4 ovarian; 2.88 µM in the assay on SK-MEL-28 melanoma; 1.94 µM in the assay on PC-3 prostate; 2.95 µM in the assay on SW-620 colon. The GI50 in the assay with RXF 393 renal was 2.56 µM; in the assay with TK-10 renal, 2.24 µM; in the assay with M14 melanoma it was 3.18 µM; in the assay on UACC-62 melanoma, 2.44 µM. Also, the TGI in the assay on HOP-92 NSCLC was 4.12 µM; in the assay with HCT-15 colon it was 5.85 µM; in the assay on OVCAR-4 ovarian, more than 100 µM; in the assay with SK-MEL-28 melanoma it was 10.9 µM; with PC-3 prostate, 6.36 µM; in the assay with RXF 393 renal it was 6.99 µM. In addition, the TGI with TK-10 renal was 6.92 µM; with M14 melanoma, 12.1 µM; in the assay on UACC-62 melanoma it was 6.65 µM.
Take `CC[C@]12C=CCN3CC[C@@]4(c5ccc(OC)cc5N(C)[C@H]4[C@@](O)(C(=O)OC)[C@@H]1OC(=O)CCC(=O)N[C@H](Cc1c[nH]c4ccccc14)C(=O)OC)[C@@H]32`: the GI50 was 4.02 µM in the assay on HOP-92 NSCLC; 3.51 µM in the assay with HCT-15 colon; 6.5 µM with OVCAR-4 ovarian; 2.21 µM in the assay on SK-MEL-28 melanoma; 2.95 µM with PC-3 prostate; 3.03 µM with SW-620 colon. For the same compound, the GI50 is 2.22 µM with RXF 393 renal, 13.5 µM in the assay with TK-10 renal, 4.06 µM in the assay with M14 melanoma and 2.42 µM in the assay with UACC-62 melanoma. The TGI with HOP-92 NSCLC stood at 24.4 µM; in the assay on HCT-15 colon it was 16.7 µM; in the assay with OVCAR-4 ovarian, 28.4 µM; in the assay with SK-MEL-28 melanoma, 5.44 µM; in the assay on PC-3 prostate, 17 µM; with SW-620 colon it was 10.6 µM. Also, the TGI in the assay on RXF 393 renal was 5.72 µM; with TK-10 renal, 29.4 µM; in the assay on M14 melanoma, more than 100 µM; in the assay on UACC-62 melanoma, 7.19 µM.
For `Cc1cc(NNC(=O)c2ccccc2O)nc(Nc2nc3ccccc3o2)n1`, the GI50 in the assay on HOP-92 NSCLC was 1.11 µM; with HCT-15 colon it was 1.17 µM; with OVCAR-4 ovarian it was 0.79 µM; with SK-MEL-28 melanoma, 1.64 µM; in the assay on PC-3 prostate, 0.912 µM; with SW-620 colon, 3.03 µM. Besides, the GI50 is 1.69 µM with RXF 393 renal, 2.73 µM in the assay on TK-10 renal, 0.854 µM in the assay with M14 melanoma and 0.966 µM with UACC-62 melanoma. For the same compound, the TGI was 13.9 µM with HOP-92 NSCLC; more than 39.5 µM in the assay on HCT-15 colon; 7.06 µM with OVCAR-4 ovarian; 13.3 µM with SK-MEL-28 melanoma; 13.7 µM with PC-3 prostate; 17.8 µM in the assay on SW-620 colon. Also, the TGI in the assay with RXF 393 renal stood at 7.3 µM; in the assay with TK-10 renal it was 23.4 µM; in the assay with M14 melanoma it was 3.44 µM; with UACC-62 melanoma it was 11.4 µM.
On to `CC1CCc2c(c(CC3CC(=O)NC(=O)C3)nn2-c2ccccc2)C1` (centres undefined), for which the TGI in the assay on HOP-92 NSCLC, with HCT-15 colon, in the assay on OVCAR-4 ovarian, in the assay on SK-MEL-28 melanoma, in the assay on PC-3 prostate and with SW-620 colon was more than 100 µM each time. In addition, the TGI in the assay with RXF 393 renal, in the assay on TK-10 renal, in the assay on M14 melanoma and in the assay with UACC-62 melanoma was more than 100 µM in each case.
Take `O=C(Cn1c(C(=O)c2ccccc2)nc2ccccc21)c1ccc(F)cc1`: the GI50 in the assay with HOP-92 NSCLC is 60.2 µM; with HCT-15 colon, 3.56 µM; with OVCAR-4 ovarian, 24.6 µM; with SK-MEL-28 melanoma it was 7.07 µM; in the assay with PC-3 prostate, 13.6 µM; with SW-620 colon, 3.28 µM. Further, the GI50 is 7.29 µM in the assay with RXF 393 renal, 14.2 µM in the assay on TK-10 renal, 3.67 µM in the assay with M14 melanoma and 11.7 µM with UACC-62 melanoma. The TGI with HOP-92 NSCLC, with HCT-15 colon, in the assay with OVCAR-4 ovarian, in the assay on SK-MEL-28 melanoma, in the assay on PC-3 prostate and with SW-620 colon was more than 100 µM throughout. Besides, the TGI with RXF 393 renal is more than 56.9 µM; in the assay on TK-10 renal, more than 100 µM; with M14 melanoma, more than 100 µM; with UACC-62 melanoma, more than 100 µM.
